Earlier results, collected in US20220289809A1, “USE OF RELAXIN TO TREAT ATRIAL FIBRILLATION” (University of Pittsburgh - Of the Commonwealth System of …, priority 2012, published 2022).

Test system: CHF canine model

Cc1ccc(=O)n(-c2ccccc2)c1 [Pirfenidone]
atrial CV: did not generate a significantly greater increase in atrial CV | fibrosis and AF: reverse fibrosis and attenuate AF
